Source: patent US20240229098A1, “BIOLUMINOGENIC ASSAY FOR DRUG-RESISTANCE BACTERIA DETECTION” (priority 2021, published 2024)

Columns and labels:
[1] = tested on: KPC-3, BlaC, TEM-1, IMP-1, AmpC, OXA-48; test: Bioluminescence with panel of recombinant β-lactamases of clinical relevance; assay type: biochemical
Description: (§1) FIGS. 9A and 9B illustrates bioluminescent studies of D-Bluco and O-Bluco treating with various β-lactamases. 10 μM of Bluco, D-Bluco and O-Bluco incubated with 20 nM TEM-1 for 15 min in PBS at r.t. The bioluminescent signals for each compound was evaluated with or without the addition of TEM-1 by a luminator. […] The relative bioluminescent was calculated by removing background signal in PBS.
Having confirmed the quenching ability of dabcyl to lower D-Bluco bioluminescent background emission, the activity of D-Bluco towards a variety of β-lactamases that are of clinical relevance in addition to TEM-1, including KPC-3, BlaC (Class A), AmpC (Class C), and OXA-48 (Class D) was then assessed. These enzymes were recombinantly expressed and purified. The bioluminescent signal was measured with an IVIS optical imaging system after treating D-Bluco with each enzyme for 2 hours at room temperature.
D-Bluco and O-Bluco were evaluated with various β-lactamase that of clinical relevance (FIG. 9B and 9C), including KPC-3, BlaC, TEM-1 (Class A), IMP-1 (Class B), AmpC (Class C), and OXA-48 (Class D). These enzymes were recombinantly expressed, purified as previously described^25. The bioluminescent signal was measured after incubating O-Bluco or D-Bluco with each enzyme at different concentrations for 2 hr at r.t. […] This compares favorably to previously reported fluorescent cephalosporin probe with a 1000-fold sensitivity improvement.^26
(§2) The caged luciferin probes were incubated with different concentrations of TEM-1 β-lactamase or IMP-1 carbapenemase (0.001-0.1 fmol) in PBS (pH=7.4) for 2 hr at 25° C. Then a mixture of luciferase (200 nM), ATP (2 mM), and MgCl2 (4 mM) was added, and bioluminescent signals were detected with a SpectraMax microplate reader or a luminator.

firefly luciferase = biological target: T1, firefly luciferase (Photinus pyralis, UniProt P08659); test: Background bioluminescence and oxidation of pro-luciferin probes on repeated addition of firefly luciferase; assay type: biochemical; conditions: for bioluminescence emission on additional batches of firefly luciferase: repeated firefly luciferase addition, no β-lactamase
T1 construct: purchased Promega E1701
Description: The initial bioluminescent background signal may come from residual D-luciferin present in the sample. High-performance liquid chromatography (HPLC) analysis could not detect any D-luciferin at a concentration below 0.1 μM. However, addition of firefly luciferase can efficiently detect and consume the residual free D-luciferin.
To further confirm the quenching effect of dabcyl in D-Bluco, another control, Am-Bluco, was prepared that is structurally similar to D-Bluco but with dabcyl replaced by a structure lacking the broad absorption between 400 and 530 nm (FIG. 1).

TEM-1 [2] = biological target: T2, TEM-1 (Escherichia coli, UniProt P62593); assay type: biochemical; set-up: made in house; conditions: 10 μM probe, TEM-1 20 nM, 15 min, PBS pH 7.4, r.t.
Description: RLU indicates relative light units.
as §1
The bioluminescence emission from the released D-luciferin was measured. […] Also evaluated was whether there was interference between luciferase and β-lactamases in such dual enzyme reaction system.
The signal to background ratio for D-Bluco, O-Bluco, and Bluco was measured following the addition of the firefly luciferase (fLuc).
as §2

IMP-1 = IMP-1 (Serratia marcescens, UniProt P52699); conditions: D-luciferin 10 μM, IMP-1 10, 20, 50, 100 nM, 15 min, PBS pH 7.4
Description: (§3) Bioluminescent signal was measured after the addition of bioluminescent reagent. Statistical significance was calculated using the unpaired two-tailed Student's t test (** p<0.01, **** p<0.0001).
(§4) The study was duplicated at room temperature with PBS (pH=7.4). Statistical significance was calculated using the unpaired two-tailed Student's t test (ns: not significant). The study was duplicated at room temperature with PBS (pH=7.4) as the buffer. Data were collected on a SpectraMax iD3 multimode microplate reader.

TEM-1 [3] = biological target: T2, TEM-1; conditions: D-luciferin 10 μM, TEM-1 10, 20, 50, 100 nM, 15 min, PBS pH 7.4
Description: as §3, §4

TEM-1 [4] = biological target: T2, TEM-1; test: Fluorescence turn-on of caged luciferin probes with recombinant TEM-1 bla; assay type: biochemical; set-up: made in house
Description: D-Bluco was evaluated as to whether it could be processed by β-lactamase to release luciferin with one of the most prevalent Ambler class A β-lactamases, TEM-1.
Both probes were evaluated to with TEM-1 bla, one of the most abundant β-Lactamases for initial testing. The fluorescent signal of D-Bluco and O-Bluco incubated with 100 nM TEM-1 bla was examined with a microplate reader over a period of 40 minutes.
General information: All chemicals were purchased from commercial sources and used without further purification. […] QuantiLum Recombinant luciferase (catalog number E1701) was purchased from Promega (Madison, WI). Reaction progress was monitored by analytical thin layer chromatography (TLC) with 0.25 mm silica gel 60F plates and visualized with fluorescent indicator (254 nm). Flash column chromatography was conducted using silica gel (SiliaFlash for flash column, 40-63 μm, 60 Å). The ^1H and ^13C NMR spectra were acquired on a Varian 500 MHz or 600 MHz magnetic resonance spectrometer. Data for ^1H NMR spectra are reported as follows: chemical shifts are reported as δ in units of parts per million (ppm) relative to chloroform-d (δ 7.26, s); multiplicities are reported as follows: s (singlet), d (doublet), t (triplet), q (quartet), dd (doublet of doublets), m (multiplet), or br (broadened); coupling constants are reported as a J value in Hertz (Hz); and the number of protons (n) for a given resonance is indicated nH and based on the spectral integration values. High resolution mass spectra were obtained on a Thermo Exactive Orbitrap LC/MS. HPLC was performed on a Dionex HPLC System (Dionex Corporation) equipped with a GP50 gradient pump and an inline diode array UV-Vis detector. A reversed-phase C18 (Phenomenax, 5 μm, 10×250 mm or Dionex, 5 μm, 4.6×250 mm) column was used with a MeCN (B)/H2O (A) gradient mobile phase containing 0.1% trifluoroacetic acid at a flow of 1 or 3 mL/min for the analysis. Fluorescence Spectra and kinetic experiments were collected by a SpectraMax iD3 multimode microplate reader (Molecular Device, San Jose, CA).

T2 sequence (P62593 24-286 limits assumed): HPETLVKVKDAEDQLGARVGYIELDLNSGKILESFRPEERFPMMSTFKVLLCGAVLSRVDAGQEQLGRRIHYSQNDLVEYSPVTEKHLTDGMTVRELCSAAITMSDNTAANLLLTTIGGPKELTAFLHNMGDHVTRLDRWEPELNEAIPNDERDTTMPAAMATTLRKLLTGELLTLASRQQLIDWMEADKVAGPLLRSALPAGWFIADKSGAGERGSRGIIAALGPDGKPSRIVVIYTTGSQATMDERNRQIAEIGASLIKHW
T1 sequence (P08659 whole entry): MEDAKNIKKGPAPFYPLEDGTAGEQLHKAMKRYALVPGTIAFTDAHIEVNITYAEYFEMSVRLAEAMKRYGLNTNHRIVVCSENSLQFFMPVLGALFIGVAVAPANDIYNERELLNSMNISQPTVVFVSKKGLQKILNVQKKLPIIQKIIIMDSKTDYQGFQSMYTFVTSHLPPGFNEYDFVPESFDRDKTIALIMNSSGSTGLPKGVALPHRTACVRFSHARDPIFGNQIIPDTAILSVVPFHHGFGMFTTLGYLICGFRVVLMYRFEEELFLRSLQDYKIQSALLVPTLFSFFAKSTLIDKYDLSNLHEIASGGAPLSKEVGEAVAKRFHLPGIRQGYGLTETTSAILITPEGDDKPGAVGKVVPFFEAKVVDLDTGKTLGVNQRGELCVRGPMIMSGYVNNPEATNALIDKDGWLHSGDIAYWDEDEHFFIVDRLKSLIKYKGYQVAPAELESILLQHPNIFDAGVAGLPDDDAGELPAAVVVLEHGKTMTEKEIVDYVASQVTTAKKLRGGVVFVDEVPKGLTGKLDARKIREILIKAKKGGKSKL
Chain of IMP-1 (P52699 19-246): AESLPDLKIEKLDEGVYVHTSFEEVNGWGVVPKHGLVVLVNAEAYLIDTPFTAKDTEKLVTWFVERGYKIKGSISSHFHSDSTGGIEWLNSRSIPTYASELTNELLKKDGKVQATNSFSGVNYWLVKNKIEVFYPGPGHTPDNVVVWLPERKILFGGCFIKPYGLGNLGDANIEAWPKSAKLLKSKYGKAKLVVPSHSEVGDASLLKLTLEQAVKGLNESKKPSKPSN

## O=C(Cc1ccccc1)NC1C(=O)N2C(C(=O)O)=C(COc3ccc4nc(C5=N[C@H](C(=O)O)CS5)sc4c3)C[S+]([O-])C12 (stereo partly shown) [Bluco, reference compound]
[1]; each enzyme 2 hours at room temperature, IVIS imaging
  bioluminescence triggered by β-lactamases TEM-1, KPC-3, BlaC, AmpC, OXA-48: significant bioluminescence
Firefly luciferase
  oxidation of probe incubated with firefly luciferase (mass spectrometry): oxidized
  bioluminescence emission on additional batches of firefly luciferase: still bioluminescence emission
TEM-1 [2]
  fold increase in bioluminescence emission upon TEM-1 treatment (turn-on ratio, signal with TEM-1 over signal without TEM-1): 41.3 fold

## O=C(O)[C@H]1CSC(c2nc3ccc(O)cc3s2)=N1 [D-luciferin]
IMP-1
  difference in bioluminescent signal of D-luciferin with or without IMP-1: No significant differences
TEM-1 [3]
  difference in bioluminescent signal of D-luciferin with or without TEM-1: No significant differences

## O=C(Cc1ccccc1)NC1C(=O)N2C(C(=O)O)=C(COc3ccc(COc4ccc5nc(C6=N[C@@H](C(=O)O)CS6)sc5c4)cc3)C3(CC3)SC12 (stereo partly drawn) [O-Bluco, 4-((4-(((2-((S)-4-carboxy-4,5-dihydrothiazol-2-yl)benzo[d]thiazol-6-yl)oxy)methyl)phenoxy)methyl)-7-oxo-8-(2-phenylacetamido)-2-thia-6-azaspiro[bicyclo[4.2.0]octane-3,1′-cyclopropan]-4-ene-5-carboxylic acid]
[1]
  sensitivity improvement over previously reported fluorescent cephalosporin probes: 1000 fold
[1]; KPC-3, BlaC, TEM-1, IMP-1, AmpC, OXA-48, 2 hr at r.t.
  detection limits for the panel of enzymes: within the femtomole range
TEM-1 [4]; 1 μM probe, TEM-1 100 nM, 40 min, PBS pH 7.4, r.t., excitation 330 nm, emission 530 nm
  fold increase in fluorescence emission in the presence of TEM-1: 32.7 fold
TEM-1 [4]; TEM-1 bla 100 nM, monitored over 40 minutes
  course of fluorescence signal with TEM-1 bla: gradual increase of signal
TEM-1 [2]
  fold increase in bioluminescence emission upon TEM-1 treatment (turn-on ratio, signal with TEM-1 over signal without TEM-1): 100.5 fold

## O=C(CCCCCNC(=O)c1ccc(NC(=O)c2ccccc2)cc1)NC1C(=O)N2C(C(=O)O)=C(COc3ccc4nc(C5=NC(C(=O)O)CS5)sc4c3)C[S+]([O-])C12 (stereo not shown) [Am-Bluco, 7-(6-(4-benzamidobenzamido)hexanamido)-3-(((2-(4-carboxy-4,5-dihydrothiazol-2-yl)benzo[d]thiazol-6-yl)oxy)methyl)-8-oxo-5-thia-1-azabicyclo[4.2.0]oct-2-ene-2-carboxylic acid 5-oxide]
Firefly luciferase
  oxidation of probe incubated with firefly luciferase (mass spectrometry): oxidized
  bioluminescence emission on additional batches of firefly luciferase: produced bioluminescence emission upon each addition of firefly luciferase
